Test results: US20200031785A1, “METHODS FOR TREATING CHRONIC PAIN AND OPIOID DEPENDENCE USING ADENYLYL CYCLASE INHIBITORS” (Purdue Research Foundation, priority 2017, published 2020)

How the values were obtained:
[1] = molecular target: T1, hAC8 (Homo sapiens, UniProt P40145); assay: Cyclic AMP accumulation in HEK cells stably expressing AC8, stimulated with A23187 (HTRF); assay type: cell-based; settings: HEK-AC8 cells; for inhibition at 30 µM: HEK293; for IC50: read-out: HEK-AC8 IC50
T1 construct: expressed in transfected cells
T1 sequence (P40145 whole entry): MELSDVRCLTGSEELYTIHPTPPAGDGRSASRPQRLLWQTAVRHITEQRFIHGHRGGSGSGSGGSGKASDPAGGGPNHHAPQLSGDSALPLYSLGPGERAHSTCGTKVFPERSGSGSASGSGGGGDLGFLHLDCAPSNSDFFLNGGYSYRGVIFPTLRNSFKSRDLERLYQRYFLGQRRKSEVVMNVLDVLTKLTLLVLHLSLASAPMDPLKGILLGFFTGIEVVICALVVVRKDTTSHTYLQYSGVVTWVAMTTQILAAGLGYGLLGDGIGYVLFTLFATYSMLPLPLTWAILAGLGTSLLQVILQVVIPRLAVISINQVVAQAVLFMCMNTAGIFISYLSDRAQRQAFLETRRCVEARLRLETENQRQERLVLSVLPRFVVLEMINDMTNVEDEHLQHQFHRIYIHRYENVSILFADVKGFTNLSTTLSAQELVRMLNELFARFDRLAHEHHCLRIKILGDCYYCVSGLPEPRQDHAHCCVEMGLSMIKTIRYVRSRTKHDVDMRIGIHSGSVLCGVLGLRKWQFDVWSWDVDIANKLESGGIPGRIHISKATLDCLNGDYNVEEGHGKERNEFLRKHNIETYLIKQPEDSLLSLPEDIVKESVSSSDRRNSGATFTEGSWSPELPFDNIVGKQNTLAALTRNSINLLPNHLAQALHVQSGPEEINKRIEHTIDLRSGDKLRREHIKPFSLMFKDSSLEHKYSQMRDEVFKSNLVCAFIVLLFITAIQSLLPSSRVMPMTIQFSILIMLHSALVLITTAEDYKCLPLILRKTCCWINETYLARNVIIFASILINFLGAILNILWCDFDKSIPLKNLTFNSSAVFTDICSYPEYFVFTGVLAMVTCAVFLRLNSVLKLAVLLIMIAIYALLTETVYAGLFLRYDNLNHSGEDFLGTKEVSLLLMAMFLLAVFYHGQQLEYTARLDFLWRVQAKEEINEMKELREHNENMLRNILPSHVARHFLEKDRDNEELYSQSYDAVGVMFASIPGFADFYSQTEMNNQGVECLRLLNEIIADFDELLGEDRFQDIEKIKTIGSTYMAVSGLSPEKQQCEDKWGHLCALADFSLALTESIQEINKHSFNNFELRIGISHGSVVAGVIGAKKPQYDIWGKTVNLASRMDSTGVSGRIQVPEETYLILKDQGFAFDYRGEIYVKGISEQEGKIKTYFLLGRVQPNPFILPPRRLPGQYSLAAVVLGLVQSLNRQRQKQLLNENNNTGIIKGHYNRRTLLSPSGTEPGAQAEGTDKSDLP
Experimental: (§1) Fresh powders of several robust inhibitors (>90% inhibition) were evaluated in multiple confirmation assays assessing the dose response relationship for inhibiting AC1 and AC8 activity. Confirmation assays used A23817 to selectively stimulate recombinant AC1 or AC8 in the HEK cell background (Cumbay and Watts (2001), J. Pharmacol Exp Ther 297:1201-1399). This approach takes advantage of one unique regulatory property of AC1 for the development of selective inhibitors. Both AC1 and AC8 are robustly activated by Ca^2+/CaM under a variety of conditions, whereas the effects of Ca^2+/CaM on AC3 are modest and conditional requiring activation by G proteins. Previous studies have identified unique Ca^2+/CaM binding domains as one possible site of interaction to achieve AC1 (vs. AC8) selectivity (Masada et al., 2012, Biochemistry 51:7917-7929).
(§2) The primary technology we employed to measure cAMP accumulation was a homogenous time-resolved fluorescence (HTRF) assay, the same technology utilized in the primary screen. […] This could be due to either 1) the chemical scaffolds are exquisitely selective toward the AC family of enzymes or 2) the library has not been screened against a sufficient number of targets. The answer is likely a combination of the two; nonetheless, the lack of biological data to date bodes well for these series and any potential off-target promiscuity.
(§3) Human embryonic kidney (HEK) cells stably expressing AC1, AC8, or AC1 with the MOR were cultured in Dulbecco's Modified Eagle Medium (Life Technologies, Grand Island, N.Y.) supplemented with 5% bovine calf serum (Hyclone, Logan, Utah), 5% fetal clone I (Hyclone), Antibiotic-Antimycotic (Life Technologies), and G418 (Invivogen, San Diego, Calif.) (HEK-AC1), or hygromycin B (Fisher Scientific, Pittsburgh, Pa.) (HEK-AC8), or G418 and puromycin (Sigma-Aldrich) (HEK-AC1/MOR). Chinese hamster ovary (CHO) cells expressing the MOR (CHO-MOR) in the PathHunter® β-Arrestin GPCR assay platform were purchased from DiscoveRx (Freemont, Calif.). Cells were grown in Ham's F12 media supplemented with 1 mM L-glutamine (Thermo Scientific, West Palm Beach, Fla.), 10% fetal bovine serum (Hyclone), 50 U/ml penicillin, 50 μg/ml streptomycin (Life Technologies), G418 and hygromycin B. Cells were grown and frozen as previously described (J. M. Conley, et al., J Vis Exp, e51218 (2014)).
(§4) Cyclic AMP accumulation was measured as previously described (Brust, et al., J. Pharmacol. Exp. Ther. 352, 480-493(2015)). Briefly, cryopreserved cells were thawed, resuspended in optiMEM (Life Technologies), and plated in white, flat bottom, low-volume, tissue culture-treated 384 well plates (PerkinElmer, Shelton, Conn.). Plates with cells were incubated in a 37° C. humidified incubator for 1 h. Inhibitors were added and plates were incubated at room temperature for 30 min followed by the addition of AC stimulants in the presence of 500 μM IBMX. Cells were incubated at room temperature for 1 h and cAMP accumulation was measured using Cisbio's cAMP kit (Cisbio Bioassays, Bedford, Mass.) according to the manufacturer's instructions.

[2] = molecular target: T2, hAC1 (Homo sapiens, UniProt Q08828); assay: Cyclic AMP accumulation in HEK cells stably expressing AC1, stimulated with A23187 (HTRF); assay type: cell-based; settings: HEK-AC1 cells; for inhibition at 30 µM: HEK293; for IC50: read-out: HEK-AC1 IC50
T2 construct: expressed in transfected cells
T2 sequence (Q08828 whole entry): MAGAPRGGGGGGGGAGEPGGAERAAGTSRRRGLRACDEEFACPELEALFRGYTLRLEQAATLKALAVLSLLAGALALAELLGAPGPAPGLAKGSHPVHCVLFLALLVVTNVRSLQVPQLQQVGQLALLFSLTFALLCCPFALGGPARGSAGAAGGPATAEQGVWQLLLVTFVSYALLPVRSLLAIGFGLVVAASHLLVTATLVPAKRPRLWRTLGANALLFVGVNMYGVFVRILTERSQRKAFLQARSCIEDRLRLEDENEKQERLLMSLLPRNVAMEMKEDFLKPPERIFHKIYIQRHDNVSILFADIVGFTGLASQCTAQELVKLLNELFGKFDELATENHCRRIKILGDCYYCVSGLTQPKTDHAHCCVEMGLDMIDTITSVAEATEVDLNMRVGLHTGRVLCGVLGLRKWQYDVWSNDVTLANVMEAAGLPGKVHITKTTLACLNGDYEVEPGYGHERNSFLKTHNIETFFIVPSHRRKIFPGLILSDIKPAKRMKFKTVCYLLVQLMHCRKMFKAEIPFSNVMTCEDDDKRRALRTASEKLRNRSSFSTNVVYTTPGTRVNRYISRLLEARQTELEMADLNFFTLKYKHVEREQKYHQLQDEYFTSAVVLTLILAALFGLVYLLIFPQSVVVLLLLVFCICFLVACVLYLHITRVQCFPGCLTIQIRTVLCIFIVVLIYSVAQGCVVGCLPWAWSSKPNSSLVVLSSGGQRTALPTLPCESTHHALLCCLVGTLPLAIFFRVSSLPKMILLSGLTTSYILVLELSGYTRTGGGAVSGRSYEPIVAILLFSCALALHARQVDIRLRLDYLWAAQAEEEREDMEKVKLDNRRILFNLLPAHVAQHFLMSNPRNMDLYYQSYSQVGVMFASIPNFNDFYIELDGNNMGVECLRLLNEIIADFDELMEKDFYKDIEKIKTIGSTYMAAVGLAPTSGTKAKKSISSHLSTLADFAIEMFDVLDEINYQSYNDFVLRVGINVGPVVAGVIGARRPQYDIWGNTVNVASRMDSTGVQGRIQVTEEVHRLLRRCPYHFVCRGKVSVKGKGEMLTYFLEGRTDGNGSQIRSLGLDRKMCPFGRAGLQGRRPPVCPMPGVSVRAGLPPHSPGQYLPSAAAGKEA
Experimental: The development and mechanistic characterization of AC1-selective small molecule inhibitors is believed to provide novel non-opioid weapons in the war on chronic pain. We identified our initial hits via screening 10,000 selected compounds from the Life Chemicals collection. The screen was carried out using HEK cells stably expressing AC1 (HEK-AC1) and cyclic AMP accumulation was stimulated using the Ca^2+ ionophore, A23187 to selectively activate AC1. Compounds with potential chemical liabilities and PAINs were removed from further evaluation (Baell and Holloway, J. Med. Chem. 2010, 53, 2719-2740).
as §1, §2, §3, §4

In the case of `O=C(Nc1nnc(-c2ccc(F)cc2)o1)c1ccccc1` [AC10004, N-(5-(4-fluorophenyl)-1,3,4-oxadiazol-2-yl)benzamide], the inhibition at 30 µM [1] is reported as 8 ± 2%, the inhibition at 30 µM [2] is reported as 65 ± 8% and the IC50 [2] is reported as 29 ± 10 µM.

`CC(C)Oc1ccc(C(=O)Nc2nnc(-c3cccs3)o2)cc1` [AC10017, 4-isopropoxy-N-(5-(thiophen-2-yl)-1,3,4-oxadiazol-2-yl)benzamide] showed an inhibition at 30 µM [1] of 35 ± 4%, an IC50 [1] of 83 ± 22 µM and an inhibition at 30 µM [2] of 84 ± 5%. It also gave an IC50 [2] of 10.7 ± 2 µM.

Work on `Cc1ccc(C(=O)Nc2nnc(-c3ccc4c(c3)OCCO4)o2)cc1` [AC10029, N-(5-(2,3-dihydrobenzo[b][1,4]dioxin-6-yl)-1,3,4-oxadiazol-2-yl)-4-methylbenzamide] yielded an inhibition at 30 µM [1] of 25 ± 6%, an IC50 [1] of 83 ± 47 µM and an inhibition at 30 µM [2] of 86 ± 11%. For the same molecule, the IC50 [2] was 11.5 ± 4 µM.

In the case of `COc1ccc(C(=O)Nc2nnc(C3CCCCC3)o2)cc1` [AC10040, N-(5-cyclohexyl-1,3,4-oxadiazol-2-yl)-4-methoxybenzamide], the inhibition at 30 µM [1] is reported as 6 ± 16%, the inhibition at 30 µM [2] is reported as 73 ± 1% and the IC50 [2] is reported as 22 ± 3 µM.

`Cc1cc(C(=O)Nc2nnc(C3CCCCC3)o2)cc(C(F)(F)F)c1` [AC10069, N-(5-cyclohexyl-1,3,4-oxadiazol-2-yl)-3-methyl-5-(trifluoromethyl)benzamide] showed an inhibition at 30 µM [1] of 83 ± 7%, an IC50 [1] of 15 ± 2 µM and an inhibition at 30 µM [2] of 96 ± 1%. The IC50 [2] was 9.6 ± 1 µM.

Work on `O=C(Nc1nnc(-c2ccc3c(c2)CCCC3)o1)c1ccc(Cl)cc1` [AC10061, 4-chloro-N-(5-(5,6,7,8-tetrahydronaphthalen-2-yl)-1,3,4-oxadiazol-2-yl)benzamide] yielded an inhibition at 30 µM [1] of 90 ± 0.4% and an inhibition at 30 µM [2] of 99 ± 1%.

Molecule `Cc1ccc(C(=O)Nc2nnc(C3CCCCC3)o2)cc1C(F)(F)F` [AC10071, N-(5-cyclohexyl-1,3,4-oxadiazol-2-yl)-4-methyl-3-(trifluoromethyl)benzamide] has an inhibition at 30 µM [1] of 83 ± 7%, an IC50 [1] of 7 ± 1 µM and an inhibition at 30 µM [2] of 100 ± 1%. It also gave an IC50 [2] of 3.7 ± 1 µM.

`CC(C)Oc1ccc(C(=O)Nc2nnc(C3CCCCC3)o2)cc1` [AC10025, N-(5-cyclohexyl-1,3,4-oxadiazol-2-yl)-4-isopropoxybenzamide] showed an inhibition at 30 µM [1] of 35 ± 8%, an IC50 [1] of 53 ± 21 µM and an inhibition at 30 µM [2] of 86 ± 7%. The IC50 [2] was 10.1 ± 1 µM.

`Cc1ccc(C(=O)Nc2nnc(C3CCCCC3)o2)cc1C` [AC10024, N-(5-cyclohexyl-1,3,4-oxadiazol-2-yl)-3,4-dimethylbenzamide] showed an inhibition at 30 µM [1] of 57 ± 7%, an IC50 [1] of 44 ± 6 µM and an inhibition at 30 µM [2] of 85 ± 4%. The IC50 [2] was 8.1 ± 2 µM.

`COc1cccc(C(=O)Nc2nnc(-c3ccc(F)cc3)o2)c1` [AC10034, N-(5-(4-fluorophenyl)-1,3,4-oxadiazol-2-yl)-3-methoxybenzamide] gave an inhibition at 30 µM [1] of 23 ± 5%, an IC50 [1] of 101 ± 14 µM and an inhibition at 30 µM [2] of 79 ± 9%. For the same molecule, the IC50 [2] was 15 ± 4 µM.

Work on `COc1cc(C(=O)Nc2nnc(-c3ccc4c(c3)CCCC4)o2)cc(C(F)(F)F)c1` [AC10074, 3-methoxy-N-(5-(5,6,7,8-tetrahydronaphthalen-2-yl)-1,3,4-oxadiazol-2-yl)-5-(trifluoromethyl)benzamide] yielded an inhibition at 30 µM [1] of 79 ± 6%, an IC50 [1] of 10 ± 0.4 µM and an inhibition at 30 µM [2] of 85 ± 3%. The IC50 [2] was 9.4 ± 1 µM.

`COc1cc(C(=O)Nc2nnc(C3CCCCC3)o2)cc(C(F)(F)F)c1` [AC10070, N-(5-cyclohexyl-1,3,4-oxadiazol-2-yl)-3-methoxy-5-(trifluoromethyl)benzamide] gave an inhibition at 30 µM [1] of 79 ± 11%, an IC50 [1] of 9 ± 1 µM and an inhibition at 30 µM [2] of 90 ± 2%. It also gave an IC50 [2] of 4.8 ± 1 µM.

`O=C(Nc1nnc(C2CCCCC2)o1)c1cccc(C(F)(F)F)c1` [AC10021, N-(5-cyclohexyl-1,3,4-oxadiazol-2-yl)-3-(trifluoromethyl)benzamide] was tested, and the inhibition at 30 µM [1] was 62 ± 8%, the IC50 [1] was 33 ± 8 µM and the inhibition at 30 µM [2] was 99 ± 1%. The IC50 [2] was 6 ± 0.6 µM.

`Cc1cc(C(=O)Nc2nnc(-c3ccc(F)cc3)o2)cc(C(F)(F)F)c1` [AC10065, N-(5-(4-fluorophenyl)-1,3,4-oxadiazol-2-yl)-3-methyl-5-(trifluoromethyl)benzamide] showed an inhibition at 30 µM [1] of 89 ± 2%, an IC50 [1] of 4.1 ± 0.4 µM and an inhibition at 30 µM [2] of 99 ± 0.5%. The IC50 [2] was 1.4 ± 0.2 µM.

For `O=C(Nc1nnc(-c2ccc(F)cc2)o1)c1ccc(-c2ccccc2)cc1` [AC10066, N-(5-(4-fluorophenyl)-1,3,4-oxadiazol-2-yl)-[1,1′-biphenyl]-4-carboxamide], the inhibition at 30 µM [1] was 90 ± 10%, the IC50 [1] was 7.5 ± 1 µM and the inhibition at 30 µM [2] was 97 ± 1%. It also gave an IC50 [2] of 2.8 ± 0.6 µM.

`Cc1ccc(C(=O)Nc2nnc(-c3ccc(F)cc3)o2)cc1C` [AC10030, N-(5-(4-fluorophenyl)-1,3,4-oxadiazol-2-yl)-3,4-dimethylbenzamide] gave an inhibition at 30 µM [1] of 42 ± 4%, an IC50 [1] of 46 ± 7 µM and an inhibition at 30 µM [2] of 93 ± 4%. The IC50 [2] was 6.5 ± 1 µM.

`CSc1cccc(C(=O)Nc2nnc(-c3ccc4c(c3)CCCC4)o2)c1` [AC10013, 3-(methylthio)-N-(5-(5,6,7,8-tetrahydronaphthalen-2-yl)-1,3,4-oxadiazol-2-yl)benzamide] gave an inhibition at 30 µM [1] of 68 ± 5%, an IC50 [1] of 9.4 ± 2 µM and an inhibition at 30 µM [2] of 97 ± 4%. For the same molecule, the IC50 [2] was 1.7 ± 0.7 µM.

Molecule `O=C(Nc1nnc(-c2ccc3c(c2)OCCO3)o1)c1ccc(Br)cc1` [AC10015, 4-bromo-N-(5-(2,3-dihydrobenzo[b][1,4]dioxin-6-yl)-1,3,4-oxadiazol-2-yl)benzamide] has an inhibition at 30 µM [1] of 68 ± 0.5%, an IC50 [1] of 23 ± 3 µM and an inhibition at 30 µM [2] of 101 ± 0.4%. It also gave an IC50 [2] of 3.4 ± 0.6 µM.

In the case of `O=C(Nc1nnc(-c2ccc(F)cc2)o1)c1cccc(-c2ccccc2)c1` [AC10064, N-(5-(4-fluorophenyl)-1,3,4-oxadiazol-2-yl)-[1,1′-biphenyl]-3-carboxamide], the inhibition at 30 µM [1] is reported as 84 ± 3%, the IC50 [1] is reported as 7 ± 1 µM and the inhibition at 30 µM [2] is reported as 98 ± 1%. For the same molecule, the IC50 [2] was 2.3 ± 0.4 µM.

Work on `Cc1ccc(C(=O)Nc2nnc(-c3ccc4c(c3)CCCC4)o2)cc1` [AC10033, 4-methyl-N-(5-(5,6,7,8-tetrahydronaphthalen-2-yl)-1,3,4-oxadiazol-2-yl)benzamide] yielded an inhibition at 30 µM [1] of 60 ± 8%, an IC50 [1] of 25 ± 6 µM and an inhibition at 30 µM [2] of 100 ± 1%. It also gave an IC50 [2] of 3.4 ± 1 µM.

For `O=C(Nc1nnc(-c2ccc(F)cc2)o1)c1cccc(C(F)(F)F)c1` [AC10028, N-(5-(4-fluorophenyl)-1,3,4-oxadiazol-2-yl)-3-(trifluoromethyl)benzamide], the inhibition at 30 µM [1] was 58 ± 1%, the IC50 [1] was 29 ± 1 µM and the inhibition at 30 µM [2] was 99 ± 2%. For the same molecule, the IC50 [2] was 5 ± 1 µM.

`O=C(Nc1nnc(-c2ccc(F)cc2)o1)c1ccc(S(=O)(=O)N2CCCCC2)cc1` [AC10036, N-(5-(4-fluorophenyl)-1,3,4-oxadiazol-2-yl)-4-(piperidin-1-ylsulfonyl)benzamide] showed an inhibition at 30 µM [1] of 38 ± 7%, an IC50 [1] of 39 ± 16 µM and an inhibition at 30 µM [2] of 83 ± 6%.

`COc1cccc(C(=O)Nc2nnc(-c3ccc4c(c3)OCCO4)o2)c1` [AC10038, N-(5-(2,3-dihydrobenzo[b][1,4]dioxin-6-yl)-1,3,4-oxadiazol-2-yl)-3-methoxybenzamide] was tested, and the inhibition at 30 µM [1] was 18 ± 10%, the IC50 [1] was 115 ± 43 µM and the inhibition at 30 µM [2] was 84 ± 5%. For the same molecule, the IC50 [2] was 9.6 ± 3 µM.

With `CCc1ccc(C(=O)Nc2nnc(C3CCCCC3)o2)cc1` [AC10045, N-(5-cyclohexyl-1,3,4-oxadiazol-2-yl)-4-ethylbenzamide] the inhibition at 30 µM [1] was 44 ± 7%, the IC50 [1] was 71 ± 14 µM and the inhibition at 30 µM [2] was 91 ± 4%. For the same molecule, the IC50 [2] was 7.3 ± 3 µM.

For `O=C(Nc1nnc(C2CCCCC2)o1)c1ccc(Br)cc1` [AC10007, 4-bromo-N-(5-cyclohexyl-1,3,4-oxadiazol-2-yl)benzamide], the inhibition at 30 µM [1] was 71 ± 11%, the IC50 [1] was 25 ± 8 µM and the inhibition at 30 µM [2] was 82 ± 7%. It also gave an IC50 [2] of 8.6 ± 3 µM.
